Laboratory results as given in US6258790A, “Antisense modulation of integrin α4 expression” (Isis Pharmaceuticals, Inc., priority 1999, dated 2001).
Where “and” joins values, the source holds several entries; their conditions need not be identical. Equal entries are not always repeated.

Assays:
[1] = system: murine integrin α4; assay: Antisense inhibition of murine integrin α4 protein expression in IC-21 macrophage cells (flow cytometry, CD49d-PE); type: cell-based, mouse; conditions: for % Control (integrin α4 protein) / % Inhib (integrin α4 protein): Table 11
Procedure: Murine IC-21 macrophage cells (American Type Culture Collection, Manassas, Va.) were used for further study. Additional oligonucleotides were designed to target murine integrin α4. These are shown in Table 10; all 2' MOE nucleotides are shown in bold and remaining positions are 2' deoxy. All 2'-MOE cytosines in these compounds are 5' methylcytosines. IC-21 cells were seeded at 5×10^4 cell/well plates two days before assay. […] Wells were triplicates.
Cells (triplicates) were seeded at 2.5×10^4 cells/well in 24-well plates the day before treatment. Oligonucleotide concentrations were 0.2, 1, 5, 25 and 50 nM in 3 ug/ml LIPOFECTIN. Cells were harvested with 2 mM EDTA for 4 minutes, then 1 ml of 2% BSA, 0.2% azide was added per contents of each well.
IC-21 cells were treated with 0.3, 1, 3, 10 and 30 nM oligonucleotide with 3 ug/ml LIPOFECTIN for 4 hours. Cells were incubated for 24 hours, harvested with trypsin, stained with 2 ug/ml CD49d-PE and rat IgG2B as in previous examples.
These compounds were tested for ability to inhibit integrin α4 protein expression.

[2] = system: human integrin α4; assay: Inhibition of human integrin α4 protein levels by antisense oligonucleotides (LIPOFECTIN, flow cytometry with CD49d-FITC) in A375 melanoma cells; type: cell-based; set-up: % Inhib.: tested at 200 nM; conditions: for % Control (integrin α4 protein) / % Inhib (integrin α4 protein): Table 1, 200 nM oligonucleotide, 6 ug/ml LIPOFECTIN
Excerpt: Integrin α4 protein levels can be quantitated in a variety of ways well known in the art, such as immunoprecipitation, Western blot analysis (immunoblotting), ELISA or fluorescence-activated cell sorting (FACS). Antibodies directed to integrin α4 can be identified and obtained from a variety of sources, such as the MSRS catalog of antibodies (Aerie Corporation, Birmingham, Mich.), or can be prepared via conventional antibody generation methods.
Target sites are indicated by nucleotide numbers, as given in the sequence source reference (GenBank accession no. L12002), to which the oligonucleotide binds. All compounds in Table 1 are 18 nucleotides in length, with a phosphorothioate backbone and a centered 10-base deoxynucleotide gap flanked by 2'-methoxyethoxy (2'MOE) wings. Human A375 melanoma cells (American Type Culture Collection, Manassas, Va.) were plated at 2000 cells/cm^2 two days before oligonucleotide treatment. Cells were treated with oligonucleotides at a dose of 200 nM oligonucleotide and 6 ug/ml LIPOFECTIN for four hours. Cells were incubated overnight and harvested with 2 mM EDTA in PBS. Cells were washed in 2% bovine serum albumin, 0.2% sodium azide in D-PBS at 4° C. Cells were centrifuged at 200×g, and the supernatant was decanted. […] Antibodies were incubated with the cells for 30 minutes at 4° C. in the dark, under gentle agitation. Cells were washed again as above and then resuspended in 0.3 ml of FacsFlow buffer with 0.5% formaldehyde. Cells were analyzed on Becton Dickinson FACScan. Results are expressed as percentage of control expression based on mean fluorescence intensity.
Cells were harvested with trypsin at 48 and 72 hours after oligonucleotide treatment and stained with 2 ug/ml CD49d-FITC as in the previous example.
Where backbones are mixed, linkages are shown as "s" for phosphorothioate (P=S or PS) and "o" for phosphodiester (P=O or PO). Where target region is indicated as `M62841,` oligonucleotides are targeted to the promotor region whose sequence is described in GenBank Accession No. M62841. Remaining oligonucleotides are targeted to the sequence described in Genbank Accession No. L12002 and their target sites on the L12002 sequence are indicated.
Target sites refer to nucleotide numbers on the target sequence (GenBank Accession No. L12002) to which the oligonucleotides hybridize.
Oligonucleotides were synthesized as "gapmers" consisting of a 9-nucleotide region of deoxynucleotides flanked by three 2'-O-methoxyethyl(2'-MOE) nucleotides on the 5' end and eight 2'-MOE nucleotides on the 3' end. 2'-MOE nucleotides are shown in bold in the table. Oligonucleotides were synthesized with phosphorothioate backbones throughout, and all cytosines are 5-methylcytosines.

[3] = IC-21 cells, 25 nM, triplicates
[4] = IC-21 cells, 25 nM, triplicates, 0.025 µM
[5] = Table 24, A375 cells, lipofectin, as Example 8

For “16429 (antisense GGCCACTGACCAGAGTTGCA; phosphorothioate, 2'-MOE/deoxy gapmer, further chemistry not given here) [compound 16429]”, the “% Control (integrin α4 protein)” value [1, 3] was 60% and the “% Inhib (integrin α4 protein)” value [1, 3] was 40%.

With “16479 (ACCTCCTCGCTCACGCGCTA; phosphorothioate DNA, further chemistry not given here) [compound 16479]” the “% Control (integrin α4 protein)” value [1, 3] was 96%.

With “16431 (CCGCAGCCATGCGCTCTTGG; phosphorothioate, 2'-MOE/deoxy, further chemistry not given here) [compound 16431]” the IC50 ([1]; IC-21 cells) was roughly 1 nM, the “% Control (integrin α4 protein)” value [1, 3] was 35% and the “% Inhib (integrin α4 protein)” value [1, 4] was 65% and > 50%. The “% Inhib.” value ([1]; Table 12, 0.2 nM, triplicates) was 18%, the “% of control” value ([1]; Table 12, 0.2 nM, triplicates) was 82% and the “% Inhib.” value ([1]; Table 12, 1 nM, triplicates) was 43%. For the same substance, the “% of control” value ([1]; Table 12, 1 nM, triplicates) was 57%, the “% Inhib.” value ([1]; Table 12, 5 nM, triplicates) was 66% and the “% of control” value ([1]; Table 12, 5 nM, triplicates) was 34%. The “% Inhib.” value ([1]; Table 12, 25 nM, triplicates) was 68%, the “% of control” value ([1]; Table 12, 25 nM, triplicates) was 32% and the “% Inhib.” value ([1]; Table 12, 50 nM, triplicates) was 70%. The “% of control” value ([1]; Table 12, 50 nM, triplicates) was 30%.

For “17048 (GCCGACACCCGTTCGTTCGG; phosphorothioate, 2'-modified, further chemistry not given here) [compound 17048]”, the “% Control” value ([1]; Table 16, 0.3 nM) was 159%, the “% Control” value ([1]; Table 16, 1 nM) was 159% and the “% Control” value ([1]; Table 16, 3 nM) was 150%. The “% Control” value ([1]; Table 16, 10 nM) was 119%.

“16477 (CGGACCAGTACCAGGGTTAC; phosphorothioate, 2'-deoxy, further chemistry not given here) [compound 16477]” was tested, and the “% Control (integrin α4 protein)” value [1, 3] was 96%.

“17046 (CCGCAGCCATGCGCTCTTGG; phosphorothioate, 2'-modified, further chemistry not given here) [compound 17046]” was tested, and the “% Control” value ([1]; Table 16, 0.3 nM) was 161%, the “% Control” value ([1]; Table 16, 1 nM) was 123% and the “% Control” value ([1]; Table 16, 3 nM) was 125%. For the same substance, the “% Control” value ([1]; Table 16, 10 nM) was 75% and the “% Inhib.” value ([1]; Table 16, 10 nM) was 25%.

“17047 (CCGCAGCCATGCGCTCTTGG; phosphorothioate, 2'-modified, further chemistry not given here) [compound 17047]” was tested, and the “% Control” value ([1]; Table 16, 0.3 nM) was 132%, the “% Control” value ([1]; Table 16, 1 nM) was 107% and the “% Control” value ([1]; Table 16, 3 nM) was 77%. The “% Inhib.” value ([1]; Table 16, 3 nM) was 23%, the “% Control” value ([1]; Table 16, 10 nM) was 36% and the “% Inhib.” value ([1]; Table 16, 10 nM) was 67%.

In the case of “107238 (antisense TCCTTGCCCTTATATGAGAA; chemistry not given here) [compound 107238]”, the “% Control” value [2, 5] is reported as 49%.

“24474 (ATCCATTTTCAACACAGT; chemistry not given here) [compound 24474]” was tested, and the “% Control (integrin α4 protein)” value ([2]; A375 cells) was 71% and the “% Inhib (integrin α4 protein)” value ([2]; A375 cells) was 29%.

“26643 (TTGCCCTTATATGAGAAACA; phosphorothioate, 2'-MOE, 5-methyl-C, further chemistry not given here) [compound 26643]” was tested, and the “% Control” value ([2]; Table 4, 10 nM) was 90%, the “% Inhib.” value ([2]; Table 4, 10 nM) was 10% and the “% Control” value ([2]; Table 4, 30 nM) was 95%. For the same substance, the “% Control” value ([2]; Table 4, 100 nM) was 93%, the “% Control” value ([2]; Table 4, 300 nM) was 66% and the “% Inhib.” value ([2]; Table 4, 300 nM (highest dose)) was 34%.

In the case of “107256 (antisense GAGGCAAGCACATATGGTAA; chemistry not given here) [compound 107256]”, the “% Control” value [2, 5] is reported as 45%.

“17045 (CCGCAGCCATGCGCTCTTGG; phosphorothioate, 2'-modified, further chemistry not given here) [compound 17045]” was tested, and the “% Control” value ([1]; Table 16, 0.3 nM) was 109%, the “% Control” value ([1]; Table 16, 1 nM) was 65% and the “% Inhib.” value ([1]; Table 16, 1 nM) was 35%. The “% Control” value ([1]; Table 16, 3 nM) was 34%, the “% Inhib.” value ([1]; Table 16, 3 nM) was 66% and the “% Control” value ([1]; Table 16, 10 nM) was 12%. The “% Inhib.” value ([1]; Table 16, 10 nM) was 88%.

For “107233 (antisense ATGCGACGGTTGGCCAACGG; chemistry not given here) [compound 107233]”, the “% Control” value [2, 5] was 57% and the “% Inhib.” value [2, 5] was 43%.

In the case of “16436 (CACCTCGCTTCCGCAGCCAT; phosphorothioate, 2'-MOE/deoxy, further chemistry not given here) [compound 16436]”, the “% Control (integrin α4 protein)” value [1, 3] is reported as 47% and the “% Inhib (integrin α4 protein)” value [1, 4] is reported as 53% and > 50%.

“16437 (CGCTTCCGCAGCCATGCGCT; phosphorothioate, 2'-MOE/deoxy, further chemistry not given here) [compound 16437]” was tested, and the “% Control (integrin α4 protein)” value [1, 3] was 36% and the “% Inhib (integrin α4 protein)” value [1, 4] was 64% and > 50%.

In the case of “107232 (antisense CCGGTTTCTGCCGCCGAGCC; chemistry not given here) [compound 107232]”, the “% Control” value [2, 5] is reported as 83% and the “% Inhib.” value [2, 5] is reported as 17%.

“24458 (CCTAAATAACTTCCAAAT; chemistry not given here) [compound 24458]” was tested, and the “% Control (integrin α4 protein)” value ([2]; A375 cells) was 88% and the “% Inhib (integrin α4 protein)” value ([2]; A375 cells) was 12%.

In the case of “24470 (TATCTGCATCAATTTGTC; chemistry not given here) [compound 24470]”, the “% Control (integrin α4 protein)” value ([2]; A375 cells) is reported as 83% and the “% Inhib (integrin α4 protein)” value ([2]; A375 cells) is reported as 17%.

With “107231 (antisense GTGCGGAGGCGCAGGGCCGG; chemistry not given here) [compound 107231]” the “% Control” value [2, 5] was 115%.

With “16430 (antisense GGCCACTGACCAGAGTTGCA; phosphorothioate, 2'-MOE/deoxy gapmer, further chemistry not given here) [compound 16430]” the “% Control (integrin α4 protein)” value [1, 3] was 50% and the “% Inhib (integrin α4 protein)” value [1, 4] was 50% and > 50%.

With “24460 (TTTCATGTAAGATATTTA; chemistry not given here) [compound 24460]” the “% Control (integrin α4 protein)” value ([2]; A375 cells) was 94%.

With “107250 (antisense GAGTAAAAGAAGTCCAAACA; chemistry not given here) [compound 107250]” the “% Control” value [2, 5] was 57% and the “% Inhib.” value [2, 5] was 43%.

In the case of “107257 (antisense TGAAATGAACCTCTGCCCAC; chemistry not given here) [compound 107257]”, the “% Control” value [2, 5] is reported as 44%.

With “107251 (antisense CCTTGCATGAAGACATAATA; chemistry not given here) [compound 107251]” the “% Control” value [2, 5] was 40%.

“16435 (CACCTCGCTTCCGCAGCCAT; phosphorothioate, 2'-MOE/deoxy, further chemistry not given here) [compound 16435]” was tested, and the “% Control (integrin α4 protein)” value [1, 3] was 30% and the “% Inhib (integrin α4 protein)” value [1, 4] was 70% and > 50%.

With “16434 (CACCTCGCTTCCGCAGCCAT; phosphorothioate, 2'-MOE/deoxy, further chemistry not given here) [compound 16434]” the “% Control (integrin α4 protein)” value [1, 3] was 33% and the “% Inhib (integrin α4 protein)” value [1, 4] was 67% and > 50%.

In the case of “107253 (antisense TCTTTGGCTGTATTATTACC; chemistry not given here) [compound 107253]”, the “% Control” value [2, 5] is reported as 29%.

In the case of “16432 (CCGCAGCCATGCGCTCTTGG; phosphorothioate, 2'-MOE/deoxy, further chemistry not given here) [compound 16432]”, the “% Control (integrin α4 protein)” value [1, 3] is reported as 53% and the “% Inhib (integrin α4 protein)” value [1, 3] is reported as 47%.

With “16428 (antisense GGCCACTGACCAGAGTTGCA; phosphorothioate, 2'-MOE/deoxy gapmer, further chemistry not given here) [compound 16428]” the “% Control (integrin α4 protein)” value [1, 3] was 67% and the “% Inhib (integrin α4 protein)” value [1, 3] was 33%.

“24454 (TTCTTTTACTCAGTTCTG; chemistry not given here) [compound 24454]” was tested, and the “% Control (integrin α4 protein)” value ([2]; A375 cells) was 53% and the “% Inhib (integrin α4 protein)” value ([2]; A375 cells) was 47%.

“24465 (TGCAGCATATTTGTCACT; chemistry not given here) [compound 24465]” was tested, and the “% Control (integrin α4 protein)” value ([2]; A375 cells) was 63% and the “% Inhib (integrin α4 protein)” value ([2]; A375 cells) was 37%.
